Converted amounts (≈) assume the structure as drawn. The source made the active and inactive calls. The calls are words filed in the database; no cut-off is given here. Where a SMILES comes first, the peptide text is derived from it.
What was measured:
Pseudomonas aeruginosa [1] = test: Antibacterial activity against Pseudomonas aeruginosa BAA 427 assessed as resistance development by measuring fold change in MIC after 30 passages with serially diluted peptides; type: functional
[2] = Hemolytic activity in human RBC measured after 40 mins; type: ADME, tissue-based, Erythrocyte; conditions: red blood cells (RBC)
[3] = (§1) Disruption of membrane integrity in human RBC cells assessed as membrane damage at 150 uM incubated for 15 min by Alexa fluor-annexin V staining based assay (reference value: 0%); type: functional, Red blood cell; conditions: 0.25 h
Staphylococcus aureus [4] = test: Antimicrobial activity against Staphylococcus aureus ATCC 25923 assessed as inhibition of bacterial growth by broth dilution method; type: functional
Cell membrane [5] = test: Induction of membrane damage in Escherichia coli assessed as disruption of membrane integrity at 10 uM incubated for 30 min by propidium iodide staining based assay
Staphylococcus aureus [6] = test: Antimicrobial activity against multidrug-resistant Staphylococcus aureus ATCC BAA-44 assessed as inhibition of bacterial growth by broth dilution method; type: functional
Klebsiella pneumoniae = test: Antimicrobial activity against Klebsiella pneumoniae ATCC 27736 assessed as inhibition of bacterial growth by broth dilution method; type: functional
Escherichia coli [7] = test: Antimicrobial activity against Escherichia coli ATCC 25922 assessed as inhibition of bacterial growth by broth dilution method; type: functional
Staphylococcus aureus [8] = test: Antimicrobial activity against methicilin- resistant Staphylococcus aureus ATCC 33591 assessed as inhibition of bacterial growth by broth dilution method; type: functional
Escherichia coli [9] = test: Antibacterial activity against Escherichia coli ATCC 25922 in presence of 10 percent fresh human serum measured after 1 hr; type: functional
[10] = Retention time of the compound analysed by RP-HPLC analysis; type: physicochemical
Escherichia coli [11] = test: Antibacterial activity against Escherichia coli ATCC 25922 in presence of 4.5 mM KCl measured after 1 hr; type: functional
Bacillus subtilis = test: Antimicrobial activity against Bacillus subtilis ATCC 6633 assessed as inhibition of bacterial growth by broth dilution method; type: functional
Escherichia coli [12] = test: Antibacterial activity against Escherichia coli ATCC 25922 in presence of temperature ranging from 4 to 90 degC measured after 1 hr; type: functional
Escherichia coli [13] = test: Antibacterial activity against Escherichia coli ATCC 25922 in presence of 150 mM NaCl measured after 1 hr; type: functional
Pseudomonas aeruginosa [14] = test: Antimicrobial activity against Pseudomonas aeruginosa ATCC BAA-427 assessed as inhibition of bacterial growth by broth dilution method; type: functional
Cell membrane [15] = test: Disruption of plasma membrane in Staphylococcus aureus ATCC 25923 at 10 uM by SYTOX-green uptake assay; type: cell membranes; conditions: TDE = time-dependent effect
Red blood cell = test: as §1; type: functional
[16] = Acute toxicity in BALB/c mouse assessed as survival at 20 mg/kg administered intravenously measured after 7 days; type: organism-based; conditions: in vivo, iv, 168 h, time 7 day
[17] = Stability of the compound in human serum assessed as intact compound remaining at 2 mg/ml measured after 60 mins by […] analysis; type: ADME, cell-free; conditions: read-out: Stability
[18] = Acute toxicity in BALB/c mouse assessed as survival at 30 mg/kg administered intravenously measured after 7 days; type: organism-based; conditions: in vivo, iv, 168 h, time 7 day
[19] = Permeability of the compound in PC/PG lipid vesicles by spectrofluorometry; type: ADME
Lipid bilayer = test: Induction of membrane depolarization in mammalian mimetic PC/Chol vesicles assessed as membrane permeabilization
[20] = tested on: Mycolicibacterium smegmatis; test: Anti-mycobacterial activity against Mycobacterium smegmatis infected in human THP-1 cells assessed as reduction in CFU at 24.19 uM after 24 hrs; type: functional
Escherichia coli [21] = test: Bactericidal activity against Escherichia coli ATCC 25922 assessed as bacterial killing at 5 times MIC measured after 60 min; type: functional, organism-based
[22] = tested on: Mycolicibacterium smegmatis; test: Anti-mycobacterial activity against Mycobacterium smegmatis infected in human THP-1 cells assessed as reduction in CFU at 40.13 uM after 24 hrs; type: functional
[23] = tested on: Mycolicibacterium smegmatis; test: Anti-mycobacterial activity against Mycobacterium smegmatis assessed as growth inhibition at 16.13 uM relative to control; type: functional
[24] = tested on: Mycobacterium tuberculosis; test: Anti-mycobacterial activity against Mycobacterium tuberculosis H37Ra assessed as growth inhibition at 16.13 uM relative to control; type: functional
Pseudomonas aeruginosa [25] = test: Antibacterial activity against Pseudomonas aeruginosa infected in Balb/c mouse stomach assessed as animal survival at 100 mg/kg, ip after 7 days; type: functional; conditions: 168 h, time 7 day

Row | Molecule | fold change (FC) (Pseudomonas aeruginosa [1]) | HC50 at 40 min [2] [µM] | Activity [3] [%] | MIC (Staphylococcus aureus [4]) [µM] | Activity (Cell membrane [5]) | MIC (Staphylococcus aureus [6]) [µM] | MIC (Klebsiella pneumoniae) [µM] | MIC (Escherichia coli [7]) [µM] | MIC (Staphylococcus aureus [8]) [µM] | MIC (Escherichia coli [9]) [µM] | Retention_time [10] [min] | MIC (Escherichia coli [11]) [µM] | MIC (Bacillus subtilis) [µM] | MIC (Escherichia coli [12]) [µM] | MIC (Escherichia coli [13]) [µM] | MIC (Pseudomonas aeruginosa [14]) [µM] | other results
1 | O=C(O)c1cn(C2CC2)c2cc(N3CCNCC3)c(F)cc2c1=O [CIPROFLOXACIN] | 64 |  |  |  |  |  |  |  |  |  |  |  |  |  |  |  | 
2 | CC(C)C[C@H](NC(=O)[C@H](CCCNC(=N)N)NC(=O)CNC(=O)[C@H](CC(C)C)NC(=O)[C@@H](NC(=O)[C@@H](CCCCN)NC(=O)[C@@H](NC(=O)[C@H](CC(C)C)NC(=O)[C@H](CCCNC(=N)N)NC(=O)CNC(=O)[C@H](CC(C)C)NC(=O)[C@@H](NC(=O)[C@H](N)CCCCN)C(C)C)C(C)C)C(C)C)C(=O)N[C@H](C(N)=O)C(C)C |  | 1930 | 13.9 | 2 (≈ 3.1 µg/mL) | Active | 2 (≈ 3.1 µg/mL) | 4 (≈ 6.2 µg/mL) | 1 (≈ 1.55 µg/mL) | 2 (≈ 3.1 µg/mL) | 2 | 16.5 | 2 | 2 (≈ 3.1 µg/mL) | 2 | 1 | 4 (≈ 6.2 µg/mL) | 
3 | CN(C)[C@@H]1C(O)=C(C(N)=O)C(=O)[C@@]2(O)C(O)=C3C(=O)c4c(O)cccc4C(C)(O)[C@H]3C[C@@H]12 (stereo partly drawn) | 16 |  |  |  |  |  |  |  |  |  |  |  |  |  |  |  | 
4 | CC[C@H](C)[C@H](NC(=O)CN)C(=O)NCC(=O)N[C@@H](C)C(=O)N[C@H](C(=O)N[C@@H](CC(C)C)C(=O)N[C@@H](CCCCN)C(=O)N[C@H](C(=O)N[C@@H](CC(C)C)C(=O)N[C@H](C(=O)N[C@H](C(=O)NCC(=O)N[C@@H](CC(C)C)C(=O)N1CCC[C@H]1C(=O)N[C@@H](C)C(=O)N[C@@H](CC(C)C)C(=O)N[C@H](C(=O)N[C@@H](CO)C(=O)N[C@@H](Cc1c[nH]c2ccccc12)C(=O)N[C@H](C(=O)N[C@@H](CCCCN)C(=O)N[C@@H](CCCNC(=N)N)C(=O)N[C@@H](CCCCN)C(=O)N[C@@H](CCCNC(=N)N)C(=O)N[C@@H](CCC(N)=O)C(=O)N[C@@H](CCC(N)=O)C(N)=O)[C@@H](C)CC)[C@@H](C)CC)[C@@H](C)O)[C@@H](C)O)C(C)C)C(C)C [MELITTIN] |  |  | 99.6 |  |  |  |  |  |  |  |  |  |  |  |  |  | 
5 | CC(C)C[C@H](NC(=O)[C@H](CCCNC(=N)N)NC(=O)CNC(=O)[C@H](CC(C)C)NC(=O)[C@@H](NC(=O)[C@H](CCCCN)NC(=O)[C@@H](NC(=O)[C@H](CC(C)C)NC(=O)[C@H](CCCNC(=N)N)NC(=O)CNC(=O)[C@H](CC(C)C)NC(=O)[C@@H](NC(=O)[C@@H](N)CCCCN)C(C)C)C(C)C)C(C)C)C(=O)N[C@H](C(N)=O)C(C)C | 8 | 429 | 96.5 | 2 (≈ 3.1 µg/mL) | Active | 2 (≈ 3.1 µg/mL) | 4 (≈ 6.2 µg/mL) | 1 (≈ 1.55 µg/mL) | 1 (≈ 1.55 µg/mL) | 2 | 16 | 2 | 2 (≈ 3.1 µg/mL) | 2 | 2 | 4 (≈ 6.2 µg/mL) | Activity (Cell membrane [15]): Tde; Activity (Red blood cell): Active; Activity [16]: Non-Toxic; remaining at 1 h, 2 mg/ml [17]: 51%; Activity [18]: Non-Toxic; Activity [19]: Active; Activity (Lipid bilayer): inactive; inhibition at 24.19 µM [20]: 20%; Activity (Escherichia coli [21]): Active; inhibition at 40.13 µM [22]: 40%; inhibition at 16.13 µM [23]: 80%; inhibition at 16.13 µM [24]: 80%
6 | C[C@H]1COc2c(N3CCN(C)CC3)c(F)cc3c(=O)c(C(=O)O)cn1c23 [LEVOFLOXACIN] |  |  |  |  |  |  |  |  |  |  |  |  |  |  |  |  | survival at 100 mg/kg (Pseudomonas aeruginosa [25]): 100%
7 | CCn1cc(C(=O)O)c(=O)c2cc(F)c(N3CCNCC3)cc21 [NORFLOXACIN] |  |  |  | 1.22 (≈ 0.39 µg/mL) |  | 2.44 (≈ 0.779 µg/mL) | 0.15 (≈ 0.0479 µg/mL) |  |  |  |  |  |  |  |  | 1.22 (≈ 0.39 µg/mL) | 
8 | CC(C)C[C@H](NC(=O)[C@H](CCCNC(=N)N)NC(=O)CNC(=O)[C@H](CC(C)C)NC(=O)[C@@H](NC(=O)[C@@H](N)CCCCN)C(C)C)C(=O)N[C@H](C(N)=O)C(C)C (H-KVLGRLV-NH2) |  |  |  | > 100 |  | > 100 | > 100 | > 100 | > 100 |  | 8.1 |  | > 100 |  |  | > 100 | 
9 | GENTAMICIN | 16 |  |  | 0.67 |  | 1.35 |  |  |  |  |  |  |  |  |  | 1.35 | 
10 | CC(C)C[C@H](NC(=O)[C@H](CCCNC(=N)N)NC(=O)CNC(=O)[C@H](CC(C)C)NC(=O)[C@@H](NC(=O)[C@H](CCCCN)NC(=O)[C@@H](NC(=O)[C@H](CC(C)C)NC(=O)[C@H](CCCNC(=N)N)NC(=O)CNC(=O)[C@H](CC(C)C)NC(=O)[C@@H](NC(=O)[C@H](N)CCCCN)C(C)C)C(C)C)C(C)C)C(=O)N[C@H](C(N)=O)C(C)C |  | 165 | 99.1 | 2 (≈ 3.1 µg/mL) | Active | 2 (≈ 3.1 µg/mL) | 4 (≈ 6.2 µg/mL) | 0.5 (≈ 0.775 µg/mL) | 1 (≈ 1.55 µg/mL) | 1 | 18.8 | 4 | 2 (≈ 3.1 µg/mL) | 2 | 2 | 4 (≈ 6.2 µg/mL) | 

Source: ChEMBL document CHEMBL5030557, “Tandem Repeat of a Short Human Chemerin-Derived Peptide and Its Nontoxic d-Lysine-Containing Enantiomer Display Broad-Spectrum Antimicrobial and Antitubercular Activities” (J Med Chem, 2021)
